Reference: the supplement of paper PMC11061612

How the values were obtained:
Experiment in all cases: Bliss excess, mean over the matrix (fraction); higher = more synergy
[1] = system: NCI-H1355 (Lung Adenocarcinoma)
Method in brief: (§1)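 Bliss excess equals the observed combination effect minus the expected value EA + EB − EA·EB, where EA and EB are the effects of each agent alone. Combination Emax is the second-highest inhibition within the matrix. Inhibition was scaled from CellTiter-Glo 2.0 luminescence, with 0 set by vehicle wells and 1 by blank wells, after 72 hours of two-drug dosing of cells plated in 1536-well plates.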

[2] = system: MV-4-11 (Acute Myeloid Leukemia)
Method in brief: as §1

[3] = system: Mo-T (Other Blood Carcinomas)
Method in brief: as §1

[4] = system: KMRC-1 (Kidney Carcinoma)
Method in brief: as §1

[5] = system: NCI-H522 (Lung Adenocarcinoma)
Method in brief: as §1

[6] = system: ML-2 (Acute Myeloid Leukemia)
Method in brief: as §1

[7] = system: MOLT-4 (T-Lymphoblastic Leukemia)
Method in brief: as §1

[8] = system: A4-Fuk (B-Lymphoblastic Leukemia)
Method in brief: as §1

[9] = system: NCI-H1993 (Lung Adenocarcinoma)
Method in brief: as §1

[10] = system: SKN (Other Solid Carcinomas)
Method in brief: as §1

| SMILES | Bliss excess [1] | Bliss excess [2] | Bliss excess [3] | Bliss excess [4] | Bliss excess [5] | Bliss excess [6] | Bliss excess [7] | Bliss excess [8] | Bliss excess [9] | Bliss excess [10] |
| --- | --- | --- | --- | --- | --- | --- | --- | --- | --- | --- |
| O=C(c1cc(Cc2n[nH]c(=O)c3ccccc23)ccc1F)N1CCN(C(=O)C2CC2)CC1 [Olaparib] + COc1nnc2ccc(N3CCC(c4ccc(OCCN5CCN(C)C(=O)[C@H]5C)cc4)CC3)nn12 [AZD5153] (first compound max 10 µM, 7x7, partner max 1 µM) | -0.11 | 0.008 | -0.0413 | -0.0556 | -0.0528 | -0.0153 | 0.023 | -0.0412 | -0.0529 | -0.0557 |
| C=CCn1c(=O)c2cnc(Nc3ccc(N4CCN(C)CC4)cc3)nc2n1-c1cccc(C(C)(C)O)n1 [AZD1775] + CCc1c2c(nc3ccc(O)cc13)-c1cc3c(c(=O)n1C2)COC(=O)[C@]3(O)CC [SN-38] (first compound max 1 µM, partner max 0.3 µM) | -0.0622 | -0.0281 | -0.0799 | -0.0817 | 0.0912 | -0.0033 | 0.0188 | -0.0617 | 0.0354 | -0.0126 |
| Cc1c2c(nn1C)CSCc1cc(n(C)n1)CSc1cc(c3ccccc3c1)OCCCc1c(C(=O)O)n(C)c3c-2c(Cl)ccc13 [AZD5991] + CC(=O)O[C@H]1C(=O)[C@@]2(C)[C@H]([C@H](OC(=O)c3ccccc3)[C@]3(O)C[C@H](OC(=O)[C@H](O)[C@@H](NC(=O)c4ccccc4)c4ccccc4)C(C)=C1C3(C)C)[C@]1(OC(C)=O)CO[C@@H]1C[C@@H]2O [Paclitaxel] (first compound max 1 µM, 7x7, partner max 3 µM) | -0.0431 | 0.0129 | -0.0521 | 0.0286 | 0.056 | 0.0157 | 0.0219 | -0.0069 | -0.037 | -0.007 |
| O=C(c1cc(Cc2n[nH]c(=O)c3ccccc23)ccc1F)N1CCN(C(=O)C2CC2)CC1 [Olaparib] + Cc1c2c(nn1C)CSCc1cc(n(C)n1)CSc1cc(c3ccccc3c1)OCCCc1c(C(=O)O)n(C)c3c-2c(Cl)ccc13 [AZD5991] (first compound max 10 µM, 7x7, partner max 1 µM) | -0.0595 | 0.0735 | -0.0492 | -0.0784 | -0.0062 | 0.0318 | 0.0336 | -0.0387 | -0.0275 | -0.0407 |
| O=C(c1cc(Cc2n[nH]c(=O)c3ccccc23)ccc1F)N1CCN(C(=O)C2CC2)CC1 [Olaparib] + CN(CC[C@H](CSC1=CC=CC=C1)NC2=C(C=C(C=C2)S(=O)(=O)NC(=O)C3=CC=C(C=C3)N4CCC(CC4)[C@H](C5=CC=CC=C5C6=CC=C(C=C6)Cl)O)S(=O)(=O)C(F)(F)F)CCO [AZD4320] (first compound max 10 µM, 7x7, partner max 1 µM) | -0.0336 | -0.0086 | -0.0065 | -0.0501 | -0.0566 | 0.0877 | 0.0581 | -0.0428 | -0.0405 | -0.0712 |
| O=C(c1cc(Cc2n[nH]c(=O)c3ccccc23)ccc1F)N1CCN(C(=O)C2CC2)CC1 [Olaparib] + CC1(C)CCC(CN2CCN(c3ccc(C(=O)NS(=O)(=O)c4ccc(NCC5CCOCC5)c([N+](=O)[O-])c4)c(Oc4cnc5[nH]ccc5c4)c3)CC2)=C(c2ccc(Cl)cc2)C1 [Venetoclax] (first compound max 10 µM, 7x7, partner max 1 µM) | -0.0524 | 0.0475 | -0.0336 | -0.0522 | -0.0627 | 0.115 | 0.124 | -0.0118 | -0.0397 | -0.0516 |
| C[C@@H](Oc1cc(-c2cnn(C3CCNCC3)c2)cnc1N)c1c(Cl)ccc(F)c1Cl [Crizotinib] + Cn1cnc2c(F)c(Nc3ccc(Br)cc3Cl)c(C(=O)NOCCO)cc21 [Selumetinib] (first compound max 10 µM, 7x7, partner max 10 µM) | -0.0223 | -0.0232 | -0.047 | -0.0191 | -0.0495 | -0.0083 | -0.0843 | -0.0021 | 0.0034 | -0.0421 |
| Cc1c2c(nn1C)CSCc1cc(n(C)n1)CSc1cc(c3ccccc3c1)OCCCc1c(C(=O)O)n(C)c3c-2c(Cl)ccc13 [AZD5991] + CS(=O)(=O)CCNCc1ccc(-c2ccc3ncnc(Nc4ccc(OCc5cccc(F)c5)c(Cl)c4)c3c2)o1 [Lapatinib] (first compound max 1 µM, 7x7, partner max 10 µM) | 0.0127 | 0.0343 | -0.0344 | -0.0282 | 0.0118 | 0.0008 | 0.0254 | 0.0199 |  | -0.0365 |
| C[C@@H](Nc1cc(F)cc(F)c1)c1cc(C(=O)N(C)C)cc2c(=O)cc(N3CCOCC3)oc12 [AZD8186] + C1CN(CCC1(C(=O)N[C@@H](CCO)C2=CC=C(C=C2)Cl)N)C3=NC=NC4=C3C=CN4 [AZD5363] (first compound max 10 µM, 7x7, partner max 10 µM) | -0.0244 | 0.0103 | -0.0393 | -0.0524 | -0.0426 | -0.0217 | -0.0083 | -0.0183 | 0.0154 | -0.1 |
| C[C@@H]1COCCN1c1cc(C2([S@](C)(=N)=O)CC2)nc(-c2ccnc3[nH]ccc23)n1 [AZD6738] + Nc1ccn([C@@H]2O[C@H](CO)[C@@H](O)C2(F)F)c(=O)n1 [Gemcitabine] (first compound max 10 µM, 7x7, partner max 0.3 µM) | 0.0732 | 0.0067 | 0.002 | 0.0601 | 0.122 | 0.108 | 0.0315 | -0.0486 | -0.0098 | 0.0033 |
